{
  "source": "ChEMBL document CHEMBL3608205",
  "about": "“Eight new cycloartane triterpenoids from Beesia calthifolia with hepatoprotective effects against D-galactosamine induced L02 cell damage” (Bioorg Med Chem Lett, 2015)",
  "data": [
    {"test_system": "L02", "experiment": "(§1) Hepatoprotective activity in human L02 cells assessed as reduction in D-galactosamine-induced cell damage at 0.1 to 1000 uM pre-incubated at 37 degC for 24 hrs before D-galactosamine challenge for 24 hrs by SRB method", "format": "functional, cell-based", "settings": "Homo sapiens, L02; read-out: EC50; call rule not given here", "units": {"EC50": "µM"}, "values": [
      {"smiles": "CC(C)(O)[C@H]1CC[C@@](C)([C@H]2[C@@H](O)[C@H](O)[C@@]3(C)[C@@H]4CC[C@H]5C(C)(C)[C@@H](O[C@@H]6OC[C@@H](O)[C@H](O)[C@H]6O)CC[C@@]56C[C@@]46C[C@@H](O)[C@]23C)O1", "note": "(relative stereo)", "EC50": 61.6},
      {"smiles": "CC(C)(O)[C@H]1CC[C@@](C)([C@H]2[C@@H](O)[C@H](O)[C@@]3(C)[C@@H]4CC[C@H]5C(C)(C)[C@@H](O[C@@H]6OC[C@@H](O)[C@H](O)[C@H]6O)CC[C@@]56C[C@@]46C[C@H](O)[C@]23C)O1", "EC50": 70.8},
      {"smiles": "CC(=O)O[C@H]1[C@H](OC(C)=O)[C@@]2(C)[C@@H]3CC[C@H]4C(C)(C)[C@@H](O)CC[C@@]45C[C@@]35C[C@@H](O)[C@]2(C)[C@H]1[C@]1(C)CC[C@H](C(C)(C)O)O1", "note": "(mixture of isomers)", "EC50": 10.7},
      {"smiles": "CC(C)(O)[C@H]1CC[C@@](C)([C@H]2[C@@H](O)[C@H](O)[C@@]3(C)[C@@H]4CC[C@H]5C(C)(C)[C@@H](O[C@@H]6OC[C@@H](O)[C@H](O)[C@H]6O)CC[C@@]56C[C@@]46C[C@H](O)[C@]23CO)O1", "note": "(relative stereo)", "EC50": 48.9},
      {"smiles": "CC(C)(O)[C@H]1CC[C@@](C)([C@H]2C(=O)[C@H](O)[C@@]3(C)[C@@H]4CC[C@H]5C(C)(C)[C@@H](O[C@@H]6OC[C@@H](O)[C@H](O)[C@H]6O)CC[C@@]56C[C@@]46C[C@H](O)[C@]23C)O1", "note": "(relative stereo)", "EC50": 78.6}
    ]},
    {"test_system": "L02", "experiment": "as §1", "format": "functional, cell-based", "settings": "l02", "values": [
      {"smiles": "CC(C)(O)[C@H]1CC[C@@](C)([C@H]2C(=O)[C@H](O)[C@@]3(C)[C@@H]4CC[C@H]5C(C)(C)[C@@H](O)CC[C@@]56C[C@@]46C[C@H](O)[C@]23C)O1", "note": "(relative stereo)", "EC50": "Not Active"},
      {"smiles": "CC(=O)OC[C@]12CC[C@@]34C[C@@]35CC[C@H](O[C@@H]3OC[C@@H](O)[C@H](O)[C@H]3O)C(C)(C)[C@@H]5CC[C@H]4[C@]1(C)[C@@H](O)[C@H](OC(C)=O)[C@@H]2[C@]1(C)CC[C@H](C(C)(C)O)O1", "EC50": "Not Active"},
      {"smiles": "CC(=O)O[C@H]1[C@H](O)[C@H]([C@]2(C)CC[C@H](C(C)(C)O)O2)[C@@]2(C)CC[C@@]34C[C@@]35CC[C@H](O[C@@H]3OC[C@@H](O)[C@H](O)[C@H]3O)C(C)(C)[C@@H]5CC[C@H]4[C@]12C", "EC50": "Not Active"}
    ]}
  ]
}
